Target: T1, human neutrophil elastase (HNE) (Homo sapiens, UniProt P08246)
T1 sequence (P08246 30-267): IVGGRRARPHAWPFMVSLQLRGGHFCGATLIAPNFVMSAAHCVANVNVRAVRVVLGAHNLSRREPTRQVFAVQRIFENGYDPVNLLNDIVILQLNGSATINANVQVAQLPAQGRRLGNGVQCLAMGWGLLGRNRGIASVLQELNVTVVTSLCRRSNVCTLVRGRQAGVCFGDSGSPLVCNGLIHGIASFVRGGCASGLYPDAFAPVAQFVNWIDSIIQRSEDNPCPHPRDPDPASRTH
Assay: HNE inhibition assay
Format: biochemical

IC50 [nM]	fold more potent than the 5-chloro derivative 7b (ratio of HNE IC50 values)	fold less potent than the 5-chloro derivative 7b (ratio of HNE IC50 values)	Structure (SMILES)
15 ± 4			Cc1cccc(C(=O)n2cc(C#N)c3cc(-c4cccnc4)cnc32)c1 [Compound 14g, 1-(3-methylbenzoyl)-5-(pyridin-3-yl)-1H-pyrrolo[2,3-b]pyridine-3-carbonitrile]
160 ± 50			Cc1cccc(C(=O)n2cc(C#N)c3cc(Cl)cnc32)c1 [Compound 7b, 5-Chloro-1-(3-methylbenzoyl)-1H-pyrrolo[2,3-b]pyridine-3-carbonitrile]
50 ± 20			Cc1cccc(C(=O)n2cc(C#N)c3cc(-c4ccccc4)cnc32)c1 [Compound 14a, 1-(3-Methylbenzoyl)-5-phenyl-1H-pyrrolo[2,3-b]pyridine-3-carbonitrile]
130 ± 40			Cc1cccc(C(=O)n2cc(C#N)c3cc(-c4cccc(C)c4)cnc32)c1 [Compound 14c, 1-(3-Methylbenzoyl)-5-(m-tolyl)-1H-pyrrolo[2,3-b]pyridine-3-carbonitrile]
10800 ± 2200			Cc1cccc(C(=O)n2c(C)c(C#N)c3cccnc32)c1 [Compound 2e, 2-Methyl-1-(3-methylbenzoyl)-1H-pyrrolo[2,3-b]pyridine-3-carbonitrile]
70 ± 15			COc1cccc(-c2cnc3c(c2)c(C#N)cn3C(=O)c2cccc(C)c2)c1 [Compound 14d, 5-(3-Methoxyphenyl)-1-(3-methylbenzoyl)-1H-pyrrolo[2,3-b]pyridine-3-carbonitrile]
51 ± 14	about 3 fold		Cc1cccc(C(=O)n2cc(C#N)c3cc(Br)cnc32)c1 [Compound 7a, 5-Bromo-1-(3-methylbenzoyl)-1H-pyrrolo[2,3-b]pyridine-3-carbonitrile]
42 ± 15			Cc1cccc(C(=O)n2cc(C#N)c3cc(-c4ccsc4)cnc32)c1 [Compound 14f, 1-(3-methylbenzoyl)-5-(thiophen-3-yl)-1H-pyrrolo[2,3-b]pyridine-3-carbonitrile]
3500 ± 1200			Cc1cccc(C(=O)n2c(C#N)cc3cccnc32)c1 [Compound 2d, 1-(3-Methylbenzoyl)-1H-pyrrolo[2,3-b]pyridine-2-carbonitrile]
400 ± 110		about 2 fold	Cc1cccc(C(=O)n2cc(C#N)c3cc([N+](=O)[O-])cnc32)c1 [Compound 7c, 1-(3-Methylbenzoyl)-5-nitro-1H-pyrrolo[2,3-b]pyridine-3-carbonitrile]
180 ± 70			Cc1cccc(C(=O)n2cc(C#N)c3cc(-c4cccc(C(F)(F)F)c4)cnc32)c1 [Compound 14b, 1-(3-Methylbenzoyl)-5-(3-(trifluoromethyl)phenyl)-1H-pyrrolo[2,3-b]pyridine-3-carbonitrile]
1600 ± 330			COc1ccc2cc(-c3cnc4c(c3)c(C#N)cn4C(=O)c3cccc(C)c3)ccc2c1 [Compound 14e, 5-(6-Methoxynaphthalen-2-yl)-1-(3-methylbenzoyl)-1H-pyrrolo[2,3-b]pyridine-3-carbonitrile]
